Legend:
Assay in all cases: isobutanol oxidation kinetics
Format in all cases: biochemical
Settings in all cases: 30° C., pH 8.8, 7.5 mM NAD
[1] = tested on: Achromobacter xylosoxidans SadB (SadB), SEQ ID NO: 26
Method: (§1) As a routine practice, the crude extracts and purified proteins were assayed for butanol oxidation activity, in order to ensure that the recombinant proteins were active throughout the purification process. […] Alcohol oxidation activities were carried out in 50 mM sodium phosphate buffer at pH 8.8 and aldehyde reduction reactions were assayed in 190 mM potassium phosphate buffer at pH 7.0. Depending on the nature of reaction being carried out, the enzyme and cofactor stocks were diluted in the reaction buffers at the respective pHs. Either buffer or cell extract prepared from the proprietary E. coli strain (with no ADH plasmid) was used as the negative control for assays with purified protein and cell-free extracts, respectively.
(§2) Kinetic constants of the ADH enzymes were calculated and compared to identify those candidate ADH enzymes with the most desirable properties for the conversion of isobutyraldehyde to isobutanol in the last step of the engineered pathway for isobutanol production. The assays for determining the kinetic constants were carried out using initial rates from the assays described above. […] The concentration of a given enzyme was such that it was conducive for the measurement of initial velocities over a 1-min time course. For each enzyme, Michaelis-Menten plots were generated with a broad range of substrate concentrations. Rough estimates of KM were obtained, based on which the assays were redesigned so as to use substrate concentrations in the range 0.5 to 10 times the KM value, to be able to obtain the appropriate kinetic constants. […] When calculating the KI for isobutanol, the same reactions were carried out in the presence of varying concentrations of isobutanol (generally 0-535 mM) in the reaction (see FIG. 7, for example). Reactions with isobutanol substrate were performed at 30° C. in 50 mM Sodium phosphate buffer, pH 8.8, containing 7.5 mM NAD. The Enzyme kinetics module (Version 1.3) of SigmaPlot 11 (Systat Software, Inc.) was used to fit data to Michaelis-Menten equations and calculate the kinetic constants. The kcat/KM is derived from the individual numbers of kcat and KM and not an experimentally determined value. The ratios of the KM, KI, and kcat/KM for each candidate enzyme as compared to the same parameter for SadB are given in Table 9.
(§3) For those enzymes marked with an asterisk in Table 7, at least 3 assays were performed with separate preparations of the enzyme. All other numbers are values from either one assay or are averages from 2 assays performed with the same enzyme sample.

[2] = target: T1, horse liver ADH (HLADH), SEQ ID NO: 21 (Equus caballus, UniProt P00327)
T1 construct: purchased Sigma A-6128
Method: as §1, §2, §3

[3] = target: T2, Beijerinckia indica subsp. Indica ATCC 9039 ADH (BiADH), SEQ ID NO: 31 (Beijerinckia indica, UniProt B2IGW3)
T2 sequence (B2IGW3 1-347): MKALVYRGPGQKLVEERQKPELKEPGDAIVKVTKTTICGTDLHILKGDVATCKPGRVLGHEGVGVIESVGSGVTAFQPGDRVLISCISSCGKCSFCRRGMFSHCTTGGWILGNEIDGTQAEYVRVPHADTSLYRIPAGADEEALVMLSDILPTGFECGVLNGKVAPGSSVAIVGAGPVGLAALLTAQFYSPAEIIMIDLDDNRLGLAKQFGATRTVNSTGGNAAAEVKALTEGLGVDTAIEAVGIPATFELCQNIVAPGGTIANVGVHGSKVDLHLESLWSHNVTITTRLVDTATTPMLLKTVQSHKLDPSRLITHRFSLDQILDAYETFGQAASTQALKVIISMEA
Method: as §1, §2, §3

T1 sequence (P00327 whole entry): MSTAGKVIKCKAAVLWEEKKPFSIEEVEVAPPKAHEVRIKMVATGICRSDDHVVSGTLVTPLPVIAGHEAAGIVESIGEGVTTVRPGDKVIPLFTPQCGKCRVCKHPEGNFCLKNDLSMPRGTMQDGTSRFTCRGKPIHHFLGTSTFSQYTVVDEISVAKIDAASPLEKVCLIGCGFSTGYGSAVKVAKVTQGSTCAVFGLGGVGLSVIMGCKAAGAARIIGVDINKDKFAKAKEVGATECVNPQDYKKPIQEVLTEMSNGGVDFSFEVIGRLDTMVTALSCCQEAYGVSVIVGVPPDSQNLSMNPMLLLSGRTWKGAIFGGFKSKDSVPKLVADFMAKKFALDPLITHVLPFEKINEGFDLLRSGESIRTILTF

SMILES: CC(C)CO [isobutanol, 2-methylpropan-1-ol]
- Km [1]: 24 mM
- kcat (isobutanol oxidation) [1]: [Isobutanol oxidation: kcat = 2 sec^−1;
- kcat (isobutanol oxidation) [2]: [Isobutanol oxidation: kcat = 5 sec^−1;
- kcat (isobutanol oxidation) [3]: [Isobutanol oxidation: kcat = 9 sec^−1;
